From US9322066B2, “Predictors for cancer treatment” (priority 2011, dated 2016)

System: relapsed or refractory, rituximab-naive or -sensitive follicular B-cell NHL
Assay: Treatment free interval, Vc-R vs rituximab study, by biomarker
Format: in vivo, human
Design: Treatment Free Interval, Median: unit not given here
Settings: for Treatment Free Interval, Evt/N / Treatment Free Interval, Median: IRC Review
Source text: Non-Hodgkin lymphoma (NHL) encompasses several unique malignant lymphoid disease entities that vary in clinical behavior, morphologic appearance, immunologic, and molecular phenotype. […] A randomized, open-label, active-controlled, multicenter, multinational, prospective study to compare the efficacy and safety of the combination of bortezomib and rituximab (Vc-R) to single-agent rituximab in subjects who have relapsed or refractory, rituximab-naive or -sensitive follicular B-cell NHL was performed.
Subjects were centrally randomized to Treatment Groups A (Vc-R) or B (rituximab) in a 1:1 ratio taking into account the following stratification factors: • Follicular Lymphoma International Prognostic Index (FLIPI) score (low [0 or 1 factor], intermediate [2 factors], high [≧3 factors]); • Prior rituximab therapy (yes, no); • Time since last dose of anti-lymphoma therapy (≦1 year, >1 year); • Region (United States/Canada, European Union, Rest of World).
The following clinical endpoints were included in the analysis within each treatment group and an overall comparison was made with the biomarker-related endpoints: Progression-free survival, defined as the interval between the date of randomization and the date of progressive disease (PD) or death, whichever is first reported in the ITT population; overall survival; overall response rate (complete response [CR]+CR unconfirmed [CRu]+partial response [PR]); overall CR rate (CR+CRu); duration of response; time to next anti-lymphoma therapy; and treatment free interval.

[1] = 20S % NUCLEAR STAINING 0-20, Female
[2] = 20S % NUCLEAR STAINING 60-70, Male
[3] = 20S % NUCLEAR STAINING 60-70, Prior Rituximab Therapy
[4] = 20S INTENSITY CYTOPLASMIC SIGNAL: ≧3+, European Union
[5] = CD68 OVERALL POSITIVE: 0-25, 2 Prior Lines of Therapy
[6] = CD68 OVERALL POSITIVE: 0-25, >1 year since last anti-lymphoma treatment
[7] = CD68 OVERALL POSITIVE: 0-25, Ann Arbor Stage III
[8] = CD68 OVERALL POSITIVE: 0-25, Ann Arbor Stage IV
[9] = CD68 OVERALL POSITIVE: 0-25, European Union
[10] = CD68 OVERALL POSITIVE: 0-25, Female
[11] = CD68 OVERALL POSITIVE: 0-25, Intermediate FLIPI Score
[12] = CD68 OVERALL POSITIVE: 0-25, Low FLIPI Score
[13] = CD68 OVERALL POSITIVE: 0-25, No High Tumor Burden
[14] = CD68 OVERALL POSITIVE: 0-25, No Prior Rituximab Therapy
[15] = CD68 OVERALL POSITIVE: 0-25, No Subgroup
[16] = CD68 OVERALL POSITIVE: 0-25, Prior Rituximab Therapy
[17] = CD68 OVERALL POSITIVE: 0-25, White
[18] = CD68 OVERALL POSITIVE: 0-25, ≦65 years old
[19] = CD68 OVERALL POSITIVE: >75, Male
[20] = CD68 POSITIVE FOLLICULAR: 0-25, >1 year since last anti-lymphoma treatment
[21] = CD68 POSITIVE FOLLICULAR: 0-25, Ann Arbor Stage III
[22] = CD68 POSITIVE FOLLICULAR: 0-25, Asian
[23] = CD68 POSITIVE FOLLICULAR: 0-25, Female
[24] = CD68 POSITIVE FOLLICULAR: 0-25, No High Tumor Burden
[25] = CD68 POSITIVE FOLLICULAR: 0-25, No Prior Rituximab Therapy
[26] = CD68 POSITIVE FOLLICULAR: 0-25, No Subgroup
[27] = CD68 POSITIVE FOLLICULAR: 0-25, White
[28] = CD68 POSITIVE FOLLICULAR: 0-25, ≦65 years old
[29] = CD68 POSITIVE PERIFOLLICULAR: 0-25, 2 Prior Lines of Therapy
[30] = CD68 POSITIVE PERIFOLLICULAR: 0-25, >1 year since last anti-lymphoma treatment
[31] = CD68 POSITIVE PERIFOLLICULAR: 0-25, Ann Arbor Stage IV
[32] = CD68 POSITIVE PERIFOLLICULAR: 0-25, Female
[33] = CD68 POSITIVE PERIFOLLICULAR: 0-25, Intermediate FLIPI Score
[34] = CD68 POSITIVE PERIFOLLICULAR: 0-25, No High Tumor Burden
[35] = CD68 POSITIVE PERIFOLLICULAR: 0-25, No Prior Rituximab Therapy
[36] = CD68 POSITIVE PERIFOLLICULAR: 0-25, No Subgroup
[37] = CD68 POSITIVE PERIFOLLICULAR: 0-25, White
[38] = CD68 POSITIVE PERIFOLLICULAR: 0-25, ≦65 years old
[39] = CD68 POSITIVE PERIFOLLICULAR: 26-50, Other
[40] = CD68 POSITIVE PERIFOLLICULAR: >75, 1 Prior Line of Therapy
[41] = CD68 POSITIVE PERIFOLLICULAR: >75, European Union
[42] = CD68 POSITIVE PERIFOLLICULAR: >75, ≦65 years old
[43] = P27 % NUCLEI POSITIVE: 0-20, 1 Prior Line of Therapy
[44] = P27 % NUCLEI POSITIVE: 0-20, Ann Arbor Stage III
[45] = P27 % NUCLEI POSITIVE: 0-20, ≦65 years old
[46] = P27 % NUCLEI POSITIVE: 30-50, High Tumor Burden
[47] = P27 SIGNAL INTENSITY: ≦1+, High Tumor Burden
[48] = P27 SIGNAL INTENSITY: ≧2+, 5 Prior Lines of Therapy

rituximab
Treatment Free Interval, Evt/N [1]: 35/61
Treatment Free Interval, Median [1]: 427
Treatment Free Interval, Evt/N [2]: 14/16
Treatment Free Interval, Median [2]: 110
Treatment Free Interval, Evt/N [3]: 17/21
Treatment Free Interval, Median [3]: 190
Treatment Free Interval, Evt/N [4]: 34/52
Treatment Free Interval, Median [4]: 393
duration of treatment free interval (Biomarker positive (PSMB1 P11A heterozygote and CD68 Low)): 10.1 mo
Treatment Free Interval, Evt/N [5]: 6/8
Treatment Free Interval, Median [5]: 80
Treatment Free Interval, Evt/N [6]: 17/26
Treatment Free Interval, Median [6]: 269
Treatment Free Interval, Evt/N [7]: 12/16
Treatment Free Interval, Median [7]: 135
Treatment Free Interval, Evt/N [8]: 15/22
Treatment Free Interval, Median [8]: 293
Treatment Free Interval, Evt/N [9]: 14/22
Treatment Free Interval, Median [9]: 234
Treatment Free Interval, Evt/N [10]: 16/26
Treatment Free Interval, Median [10]: 293
Treatment Free Interval, Evt/N [11]: 7/11
Treatment Free Interval, Median [11]: 343
Treatment Free Interval, Evt/N [12]: 8/10
Treatment Free Interval, Median [12]: 281
Treatment Free Interval, Evt/N [13]: 8/14
Treatment Free Interval, Median [13]: 411
Treatment Free Interval, Evt/N [14]: 12/19
Treatment Free Interval, Median [14]: 393
Treatment Free Interval, Evt/N [15]: 30/44
Treatment Free Interval, Median [15]: 269
Treatment Free Interval, Evt/N [16]: 18/25
Treatment Free Interval, Median [16]: 115
Treatment Free Interval, Evt/N [17]: 24/35
Treatment Free Interval, Median [17]: 269
Treatment Free Interval, Evt/N [18]: 24/34
Treatment Free Interval, Median [18]: 234
Treatment Free Interval, Evt/N (CD68 OVERALL POSITIVE: 51-75, No High Tumor Burden): 10/25
Treatment Free Interval, Evt/N [19]: 8/9
Treatment Free Interval, Median [19]: 272
Treatment Free Interval, Evt/N [20]: 22/34
Treatment Free Interval, Median [20]: 409
Treatment Free Interval, Evt/N [21]: 19/24
Treatment Free Interval, Median [21]: 190
Treatment Free Interval, Evt/N [22]: 5/6
Treatment Free Interval, Median [22]: 148
Treatment Free Interval, Evt/N [23]: 23/37
Treatment Free Interval, Median [23]: 307
Treatment Free Interval, Evt/N [24]: 14/22
Treatment Free Interval, Median [24]: 432
Treatment Free Interval, Evt/N [25]: 23/36
Treatment Free Interval, Median [25]: 344
Treatment Free Interval, Evt/N [26]: 40/60
Treatment Free Interval, Median [26]: 307
Treatment Free Interval, Evt/N [27]: 32/48
Treatment Free Interval, Median [27]: 307
Treatment Free Interval, Evt/N [28]: 33/46
Treatment Free Interval, Median [28]: 190
Treatment Free Interval, Evt/N [29]: 6/8
Treatment Free Interval, Median [29]: 64
Treatment Free Interval, Evt/N [30]: 15/24
Treatment Free Interval, Median [30]: 393
Treatment Free Interval, Evt/N [31]: 11/15
Treatment Free Interval, Median [31]: 234
Treatment Free Interval, Evt/N [32]: 19/28
Treatment Free Interval, Median [32]: 234
Treatment Free Interval, Evt/N [33]: 7/13
Treatment Free Interval, Median [33]: 361
Treatment Free Interval, Evt/N [34]: 8/13
Treatment Free Interval, Median [34]: 361
Treatment Free Interval, Evt/N [35]: 12/18
Treatment Free Interval, Median [35]: 393
Treatment Free Interval, Evt/N [36]: 26/39
Treatment Free Interval, Median [36]: 234
Treatment Free Interval, Evt/N [37]: 19/27
Treatment Free Interval, Median [37]: 361
Treatment Free Interval, Evt/N [38]: 20/31
Treatment Free Interval, Median [38]: 143
Treatment Free Interval, Evt/N [39]: 4/4
Treatment Free Interval, Median [39]: 217
Treatment Free Interval, Evt/N [40]: 15/18
Treatment Free Interval, Median [40]: 297
Treatment Free Interval, Evt/N [41]: 13/17
Treatment Free Interval, Median [41]: 533
Treatment Free Interval, Evt/N [42]: 19/23
Treatment Free Interval, Median [42]: 297
Treatment Free Interval, Evt/N [43]: 19/26
Treatment Free Interval, Median [43]: 293
Treatment Free Interval, Evt/N [44]: 14/16
Treatment Free Interval, Median [44]: 275
Treatment Free Interval, Evt/N [45]: 26/34
Treatment Free Interval, Median [45]: 187
Treatment Free Interval, Evt/N [46]: 17/22
Treatment Free Interval, Median [46]: 280
Treatment Free Interval, Evt/N (P27 % NUCLEI POSITIVE: 60-70, 3 Prior Lines of Therapy): 1/6
Treatment Free Interval, Evt/N [47]: 16/18
Treatment Free Interval, Median [47]: 122
Treatment Free Interval, Evt/N [48]: 5/6
Treatment Free Interval, Median [48]: 88
Treatment Free Interval, Evt/N (P27 SIGNAL INTENSITY: ≧2+, Prior Rituximab Therapy): 60/88
